# Source: patent US20100080770A1, “Hepatitis C Virus Inhibitors” (priority 2008, published 2010)
# Read-outs that look alike come from different tables or passages of the source.
# Legend:
# [1] = molecular target: T1, HCV NS3/4A protease complex (Hepatitis C virus genotype 1a, UniProt P27958, C1454S/C1711G); assay: FRET peptide assay to monitor HCV NS3/4A proteolytic activity; assay type: biochemical; conditions: HCV NS3/4A protease complex, strain not stated, read-out: IC50
# T1 construct: recombinant HCV NS3/4A protease complex (amino acids 1027 to 1711); inferred from the pET21b vector and Ni-NTA purification; made in house; host or cells: Escherichia coli BL21 (DE3)
# T1 sequence (P27958 1027-1711 C1454S/C1711G, one chain of several): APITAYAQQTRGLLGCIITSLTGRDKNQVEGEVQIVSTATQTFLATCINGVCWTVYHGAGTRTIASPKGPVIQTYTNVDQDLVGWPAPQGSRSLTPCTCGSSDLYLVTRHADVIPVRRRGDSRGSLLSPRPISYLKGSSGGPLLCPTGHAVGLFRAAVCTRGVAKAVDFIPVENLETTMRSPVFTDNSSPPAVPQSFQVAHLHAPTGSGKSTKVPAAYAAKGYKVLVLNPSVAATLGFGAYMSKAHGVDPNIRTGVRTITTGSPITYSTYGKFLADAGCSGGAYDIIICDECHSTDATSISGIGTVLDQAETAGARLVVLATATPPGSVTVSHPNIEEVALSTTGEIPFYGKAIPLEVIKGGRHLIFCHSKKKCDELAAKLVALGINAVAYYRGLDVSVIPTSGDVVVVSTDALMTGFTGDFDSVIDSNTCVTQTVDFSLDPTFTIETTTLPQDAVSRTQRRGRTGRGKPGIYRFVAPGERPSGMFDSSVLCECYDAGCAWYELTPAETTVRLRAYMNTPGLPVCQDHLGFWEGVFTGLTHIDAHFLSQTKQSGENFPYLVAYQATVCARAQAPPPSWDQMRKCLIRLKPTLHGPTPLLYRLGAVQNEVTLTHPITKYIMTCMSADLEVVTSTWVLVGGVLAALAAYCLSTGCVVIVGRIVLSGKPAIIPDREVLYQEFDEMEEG
# Text: HCV NS3 protease complexes, derived from the BMS strain, H77 strain or J4L6S strain, were generated, as described below. These purified recombinant proteins were generated for use in a homogeneous assay (see below) to provide an indication of how effective compounds of the present disclosure would be in inhibiting HCV NS3 proteolytic activity.
# The H77 and J4L6S strains were used for production of recombinant NS3/4A protease complexes. DNA encoding the recombinant HCV NS3/4A protease complex (amino acids 1027 to 1711) for these strains was manipulated as described by P. Gallinari et al. (see Gallinari P, Paolini C, Brennan D, Nardi C, Steinkuhler C, De Francesco R. Biochemistry. 38(17):5620-32, (1999)). Briefly, a three-lysine solubilizing tail was added at the 3′-end of the NS4A coding region. The cysteine in the P1 position of the NS4A-NS4B cleavage site (amino acid 1711) was changed to a glycine to avoid the proteolytic cleavage of the lysine tag. Furthermore, a cysteine to serine mutation was introduced by PCR at amino acid position 1454 to prevent the autolytic cleavage in the NS3 helicase domain. The variant DNA fragment was cloned in the pET21b bacterial expression vector (Novagen) and the NS3/4A complex was expressed in Escherichia coli strain BL21 (DE3) (Invitrogen) following the protocol described by P. Gallinari et al. (see Gallinari P, Brennan D, Nardi C, Brunetti M, Tomei L, Steinkuhler C, De Francesco R., J Virol. 72(8):6758-69 (1998)) with modifications. Briefly, the NS3/4A protease complex expression was induced with 0.5 millimolar (mM) Isopropyl β-D-1-thiogalactopyranoside (IPTG) for 22 hours (h) at 20° C. A typical fermentation (1 Liter (L)) yielded approximately 10 grams (g) of wet cell paste. The cells were resuspended in lysis buffer (10 mL/g) consisting of 25 mM N-(2-Hydroxyethyl)Piperazine-N′-(2-Ethane Sulfonic acid) (HEPES), pH 7.5, 20% glycerol, 500 mM Sodium Chloride (NaCl), 0.5% Triton X-100, 1 microgram/milliliter (“μg/mL”) lysozyme, 5 mM Magnesium Chloride (MgCl2), 1 μg/ml DnaseI, 5 mM β-Mercaptoethanol (βME), Protease inhibitor-Ethylenediamine Tetraacetic acid (EDTA) free (Roche), homogenized and incubated for 20 minutes (min) at 4° C. The homogenate was sonicated and clarified by ultra-centrifugation at 235000 g for 1 hour (h) at 4° C. Imidazole was added to the supernatant to a final concentration of 15 mM and the pH adjusted to 8.0. The crude protein extract was loaded on a Nickel-Nitrilotriacetic acid (Ni-NTA) column pre-equilibrated with buffer B (25 mM HEPES, pH 8.0, 20% glycerol, 500 mM NaCl, 0.5% Triton X-100, 15 mM imidazole, 5 mM βME). The sample was loaded at a flow rate of 1 ml/min. The column was washed with 15 column volumes of buffer C (same as buffer B except with 0.2% Triton X-100). The protein was eluted with 5 column volumes of buffer D (same as buffer C except with 200 mM Imidazole).
# NS3/4A protease complex-containing fractions were pooled and loaded on a desalting column Superdex-S200 pre-equilibrated with buffer D (25mM HEPES, pH 7.5, 20% glycerol, 300 mM NaCl, 0.2% Triton X-100, 10 mM βME). Sample was loaded at a flow rate of 1 mL/min. NS3/4A protease complex-containing fractions were pooled and concentrated to approximately 0.5 mg/ml. The purity of the NS3/4A protease complexes, derived from the BMS, H77 and J4L6S strains, were judged to be greater than 90% by SDS-PAGE and mass spectrometry analyses. The enzyme was stored at −80° C., thawed on ice and diluted prior to use in assay buffer.
# The purpose of this in vitro assay was to measure the inhibition of HCV NS3 protease complexes, derived from the BMS strain, H77 strain or J4L6S strain, as described above, by compounds of the present disclosure. This assay provides an indication of how effective compounds of the present disclosure would be in inhibiting HCV NS3 proteolytic activity.
# In order to monitor HCV NS3/4A protease activity, an NS3/4A peptide substrate was used. […]
# [2] = test system: HCV replicon in HUH-7 cells; assay: HCV replicon assay (FRET, confirmed in the luciferase reporter assay); assay type: cell-based; conditions: Hepatitis C virus, 96 h, 4 days
# Text: An HCV replicon whole cell system was established as described by Lohmann V, Korner F, Koch J, Herian U, Theilmann L, Bartenschlager R., Science 285(5424):110-3 (1999). This system enabled us to evaluate the effects of our HCV Protease compounds on HCV RNA replication. Briefly, using the HCV strain 1b sequence described in the Lohmann paper (Assession number: AJ238799), an HCV cDNA was synthesized by Operon Technologies, Inc. (Alameda, Calif.), and the full-length replicon was then assembled in plasmid pGem9zf(+) (Promega, Madison, Wis.) using standard molecular biology techniques. The replicon consists of (i) the HCV 5′ UTR fused to the first 12 amino acids of the capsid protein, (ii) the neomycin phosphotransferase gene (neo), (iii) the IRES from encephalomyocarditis virus (EMCV), and (iv) HCV NS3. to NS5B genes and the HCV 3′ UTR. Plasmid DNAs were linearized with Seal and RNA transcripts were synthesized in vitro using the T7 MegaScript transcription kit (Ambion, Austin, Tex.) according to manufacturer's directions. In vitro transcripts of the cDNA were transfected into the human hepatoma cell line, HUH-7. […] Resulting cell lines were characterized for positive and negative strand RNA production and protein production over time.
# The HCV replicon FRET assay was developed to monitor the inhibitory effects of compounds described in the disclosure on HCV viral replication. HUH-7 cells, constitutively expressing the HCV replicon, were grown in Dulbecco's Modified Eagle Media (DMEM) (Gibco-BRL) containing 10% Fetal calf serum (FCS) (Sigma) and 1 mg/ml G418 (Gibco-BRL). Cells were seeded the night before (1.5×10^4 cells/well) in 96-well tissue-culture sterile plates. Compound and no compound controls were prepared in DMEM containing 4% FCS, 1:100 Penicillin/Streptomysin (Gibco-BRL), 1:100 L-glutamine and 5% DMSO in the dilution plate (0.5% DMSO final concentration in the assay). Compound/DMSO mixes were added to the cells and incubated for 4 days at 37° C. After 4 days, cells were first assessed for cytotoxicity using alamar Blue (Trek Diagnotstic Systems) for a CC50 reading. The toxicity of compound (CC50) was determined by adding 1/10th volume of alamar Blue to the media incubating the cells. After 4 h, the fluorescence signal from each well was read, with an excitation wavelength at 530 nm and an emission wavelength of 580 nm, using the Cytofluor Series 4000 (Perspective Biosystems). Plates were then rinsed thoroughly with Phosphate-Buffered Saline (PBS) (3 times 150 μl).
# As a secondary assay, EC50 determinations from the replicon FRET assay were confirmed in a replicon luciferase reporter assay. Utilization of a replicon luciferase reporter assay was first described by Krieger et al (Krieger N, Lohmann V, and Bartenschlager R, J. Virol. 75(10):4614-4624 (2001)). The replicon construct described for our FRET assay was modified by inserting cDNA encoding a humanized form of the Renilla luciferase gene and a linker sequence fused directly to the 3′-end of the luciferase gene. This insert was introduced into the replicon construct using an Ascl restriction site located in core, directly upstream of the neomycin marker gene. The adaptive mutation at position 1179 (serine to isoleucine) was also introduced (Blight K J, Kolykhalov, A A, Rice, C M, Science 290(5498):1972-1974). A stable cell line constitutively expressing this HCV replicon construct was generated as described above. The luciferase reporter assay was set up as described for the HCV replicon FRET assay with the following modifications. Following 4 days in a 37° C./5% CO2 incubator, cells were analyzed for Renilla Luciferase activity using the Promega Dual-Glo Luciferase Assay System. Media (100 μl) was removed from each well containing cells. To the remaining 50 μl of media, 50 μl of Dual-Glo Luciferase Reagent was added, and plates rocked for 10 min to 2 h at room temperature. […]
SMILES,IC50 ([1]; class symbols) [µM],EC50 ([2]; class symbols) [µM],IC50 ([1]; numeric values) [µM],EC50 ([2]; numeric values) [µM]
C=C[C@@H]1C[C@]1(NC(=O)[C@@H]1C[C@]2(OC)CN1C(=O)[C@H](C(C)(C)C)NC(=O)OCCC(C)(C)CCCc1cc3cc2ccc3cc1OC)C(=O)NS(=O)(=O)C1CC1 [Example 17],0.001 to 0.01,0.001 to 0.01,,
COc1cc2ccc3cc2cc1CCCC(C)(C)CCOC(=O)N[C@@H](C(C)(C)C)C(=O)N1C[C@@]3(OC)C[C@H]1C(=O)N[C@]1(C(=O)NS(=O)(=O)C2CC2)C[C@H]1C1CC1 [Example 19],0.001 to 0.01,0.001 to 0.01,,
COc1cc2ccc3cc2cc1CCCCC(C)(C)COC(=O)N[C@@H](C(C)(C)C)C(=O)N1C[C@@]3(OC)C[C@H]1C(=O)N[C@]1(C(=O)NS(=O)(=O)C2CC2)C[C@H]1C1CC1 [Example 15],0.001 to 0.01,0.001 to 0.01,,
COc1cc2ccc3cc2cc1CCCC(C)(C)CCOC(=O)N[C@@H](C(C)(C)C)C(=O)N1C[C@@]3(OC)C[C@H]1C(=O)N[C@]1(C(=O)NS(=O)(=O)C2CC2)C[C@H]1C(F)F [Example 18],0.001 to 0.01,0.001 to 0.01,,
C=C[C@@H]1C[C@]1(NC(=O)[C@@H]1C[C@]2(OC)CN1C(=O)[C@H](C(C)(C)C)NC(=O)OCCCCC=Cc1cc3cc2ccc3cc1OC)C(=O)NS(=O)(=O)C1CC1 [Example 7],0.001 to 0.01,0.001 to 0.01,,
C=C[C@@H]1C[C@]1(NC(=O)[C@@H]1C[C@]2(OC)CN1C(=O)[C@H](C(C)(C)C)NC(=O)OCC(C)(C)C/C=C\c1cc3cc2ccc3cc1OC)C(=O)NS(=O)(=O)C1CC1 [Example 8],0.001 to 0.01,0.001 to 0.01,,
C=C[C@@H]1C[C@]1(NC(=O)[C@@H]1C[C@]2(OC)CN1C(=O)[C@H](C(C)(C)C)NC(=O)OCCC/C=C\c1cc3cc2ccc3cc1OC)C(=O)NS(=O)(=O)C1CC1 [Example 4],0.001 to 0.01,0.001 to 0.01,,
COc1cc2ccc3cc2cc1CCCC(C)(C)COC(=O)N[C@@H](C(C)(C)C)C(=O)N1C[C@@]3(OC)C[C@H]1C(=O)N[C@]1(C(=O)NS(=O)(=O)C2CC2)C[C@H]1C(F)F [Example 11],0.001 to 0.01,0.011 to 0.02,,
C=C[C@@H]1C[C@]1(NC(=O)[C@@H]1C[C@]2(OC)CN1C(=O)[C@H](C(C)(C)C)NC(=O)OCCCCCCc1cc3cc2ccc3cc1OC)C(=O)NS(=O)(=O)C1CC1 [Example 12],,,0.001,0.00284
COc1cc2ccc3cc2cc1CCCC(C)(C)COC(=O)N[C@@H](C(C)(C)C)C(=O)N1C[C@@]3(OC)C[C@H]1C(=O)N[C@]1(C(=O)NS(=O)(=O)C2CC2)C[C@H]1C1CC1 [Example 10],0.011 to 0.012,0.021 to 0.15,,
COc1cc2ccc3cc2cc1CCCCCCOC(=O)N[C@@H](C(C)(C)C)C(=O)N1C[C@@]3(OC)C[C@H]1C(=O)N[C@]1(C(=O)NS(=O)(=O)C2CC2)C[C@H]1C1CC1 [Example 13],0.001 to 0.01,0.011 to 0.02,,
C=C[C@@H]1C[C@]1(NC(=O)[C@@H]1C[C@]2(OC)CN1C(=O)[C@H](C(C)(C)C)NC(=O)OCC/C=C\c1cc3cc2ccc3cc1OC)C(=O)NS(=O)(=O)C1CC1 [Example 1],,,0.031,0.12
C=C[C@@H]1C[C@]1(NC(=O)[C@@H]1C[C@]2(OC)CN1C(=O)[C@H](C(C)(C)C)NC(=O)OCC(C)(C)CCCc1cc3cc2ccc3cc1OC)C(=O)NS(=O)(=O)C1CC1 [Example 9],0.001 to 0.01,0.001 to 0.01,,
CC[C@@H]1C[C@]1(NC(=O)[C@@H]1C[C@]2(OC)CN1C(=O)[C@H](C(C)(C)C)NC(=O)OCC(C)(C)CCCCc1cc3cc2ccc3cc1OC)C(=O)NS(=O)(=O)C1CC1 [Example 16],0.011 to 0.012,0.021 to 0.15,,
C=C[C@@H]1C[C@]1(NC(=O)[C@@H]1C[C@]2(OC)CN1C(=O)[C@H](C(C)(C)C)NC(=O)OCC(C)(C)CCCCc1cc3cc2ccc3cc1OC)C(=O)NS(=O)(=O)C1CC1 [Example 14],0.001 to 0.01,0.001 to 0.01,,
